Assay results taken from ChEMBL document CHEMBL1201862, “PubChem BioAssay data set” (2004).
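All cell lines were grown in 96-well plates and treated with compound for 48 hours. Abbreviation: GI50, concentration required for 50% inhibition of growth.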 Activity calls are given as the source filed them. Rule as the data show it: active = GI50 up to about 1.1 µM and inactive = higher.

Assays:
Assay in all cases: inhibition of tumour cell growth, NCI panel, 48 h
ACHN = test system: ACHN
SN12C = test system: SN12C
MDA-MB-231 = test system: MDA-MB-231
MDA-N = test system: MDA-N
T47D = test system: T47D
HL-60 = test system: HL-60
HT-29 = test system: HT-29
SK-MEL-28 = test system: SK-MEL-28
SK-MEL-2 = test system: SK-MEL-2
OVCAR-8 = test system: OVCAR-8
SK-MEL-5 = test system: SK-MEL-5
NCI-H460 = test system: NCI-H460
OVCAR-4 = test system: OVCAR-4
CAKI-1 = test system: CAKI-1
786-0 = test system: 786-0
SNB-19 = test system: SNB-19
RPMI-8226 = test system: RPMI-8226
M14 = test system: M14
SF-539 = test system: SF-539
HOP-92 = test system: HOP-92
OVCAR-5 = test system: OVCAR-5
OVCAR-3 = test system: OVCAR-3
SK-OV-3 = test system: SK-OV-3
TK-10 = test system: TK-10
HCT-15 = test system: HCT-15
SR = test system: SR
RXF 393 = test system: RXF 393
HCT-116 = test system: HCT-116
A549 = test system: A549
U-251 = test system: U-251
UACC-257 = test system: UACC-257
MDA-MB-435 = test system: MDA-MB-435
SF-268 = test system: SF-268
SF-295 = test system: SF-295
MOLT-4 = test system: MOLT-4
Malme-3M = test system: Malme-3M
K562 = test system: K562
LOX IMVI = test system: LOX IMVI
BT-549 = test system: BT-549
IGROV-1 = test system: IGROV-1
NCI-H226 = test system: NCI-H226
HOP-62 = test system: HOP-62
EKVX = test system: EKVX
NCI/ADR-RES = test system: NCI/ADR-RES
NCI-H23 = test system: NCI-H23
CCRF-CEM = test system: CCRF-CEM
UO-31 = test system: UO-31
HCC 2998 = test system: HCC 2998
COLO 205 = test system: COLO 205
PC-3 = test system: PC-3
DU-145 = test system: DU-145
KM12 = test system: KM12
NCI-H522 = test system: NCI-H522
MCF7 = test system: MCF7
UACC-62 = test system: UACC-62
Hs-578T = test system: Hs-578T
SW-620 = test system: SW-620
SNB-75 = test system: SNB-75

For `CC(=O)OCCCC(NC(=O)OC(C)(C)C)C(=O)NC(CCCOC(C)=O)C(=O)NC(Cc1ccc([N+](=O)[O-])cc1)C(=O)NCC(=O)OCc1ccccc1` (centres undefined), the GI50 (ACHN) was 17.4 µM (inactive), the GI50 (SN12C) was 17.7 µM (inactive) and the GI50 (MDA-MB-231) was 13 µM (inactive). For the same compound, the GI50 (MDA-N) was 15.3 µM (inactive), the GI50 (T47D) was 18 µM (inactive) and the GI50 (HL-60) was 3.15 µM (inactive). The GI50 (HT-29) was 17.9 µM (inactive), the GI50 (SK-MEL-28) was 17.9 µM (inactive) and the GI50 (SK-MEL-2) was 15.4 µM (inactive). The GI50 (OVCAR-8) was 17.3 µM (inactive), the GI50 (SK-MEL-5) was 16.4 µM (inactive) and the GI50 (NCI-H460) was 15.6 µM (inactive). For the same compound, the GI50 (OVCAR-4) was 12.3 µM (inactive), the GI50 (CAKI-1) was 18.5 µM (inactive) and the GI50 (786-0) was 18 µM (inactive). For the same compound, the GI50 (SNB-19) was 17.8 µM (inactive), the GI50 (RPMI-8226) was 19.9 µM (inactive) and the GI50 (M14) was 12.9 µM (inactive). The GI50 (SF-539) was 15.3 µM (inactive), the GI50 (HOP-92) was 18.4 µM (inactive) and the GI50 (OVCAR-5) was 15.8 µM (inactive). For the same compound, the GI50 (OVCAR-3) was 16.5 µM (inactive), the GI50 (SK-OV-3) was 26.1 µM (inactive) and the GI50 (TK-10) was 18.5 µM (inactive). The GI50 (HCT-15) was 15.1 µM, the GI50 (SR) was 15.6 µM (inactive) and the GI50 (RXF 393) was 13.1 µM (inactive). The GI50 (HCT-116) was 18.1 µM (inactive), the GI50 (A549) was 20.3 µM (inactive) and the GI50 (U-251) was 18.4 µM (inactive). For the same compound, the GI50 (UACC-257) was 15.3 µM (inactive), the GI50 (MDA-MB-435) was 17.3 µM (inactive) and the GI50 (SF-268) was 20.2 µM (inactive). For the same compound, the GI50 (SF-295) was 11.9 µM (inactive), the GI50 (MOLT-4) was 37.6 µM (inactive) and the GI50 (Malme-3M) was 19.9 µM (inactive). The GI50 (K562) was 23.7 µM (inactive), the GI50 (LOX IMVI) was 13.1 µM (inactive) and the GI50 (BT-549) was 18.5 µM (inactive). For the same compound, the GI50 (IGROV-1) was 17.9 µM (inactive), the GI50 (NCI-H226) was 16.1 µM (inactive) and the GI50 (HOP-62) was 19.5 µM (inactive). For the same compound, the GI50 (EKVX) was 18.3 µM (inactive), the GI50 (NCI/ADR-RES) was 19.2 µM (inactive) and the GI50 (NCI-H23) was 14.3 µM (inactive). The GI50 (CCRF-CEM) was 29.7 µM (inactive), the GI50 (UO-31) was 16.1 µM (inactive) and the GI50 (HCC 2998) was 18.9 µM (inactive). For the same compound, the GI50 (COLO 205) was 17.6 µM (inactive), the GI50 (PC-3) was 17.2 µM (inactive) and the GI50 (DU-145) was 16.4 µM (inactive). The GI50 (KM12) was 15.6 µM (inactive), the GI50 (NCI-H522) was 18.1 µM (inactive) and the GI50 (MCF7) was 17.9 µM (inactive). The GI50 (UACC-62) was 15.2 µM (inactive), the GI50 (Hs-578T) was 14 µM (inactive) and the GI50 (SW-620) was 16.9 µM (inactive).

With `CN(C)CCN1C(=O)c2ccccc2C1(O)c1ccc(Cl)cc1` (centres undefined) the GI50 (ACHN) was > 100 µM (inactive), the GI50 (SN12C) was > 100 µM (inactive) and the GI50 (MDA-MB-231) was 44.6 µM (inactive). For the same compound, the GI50 (MDA-N) was 79.4 µM (inactive), the GI50 (T47D) was 94.8 µM (inactive) and the GI50 (HL-60) was 26.4 µM (inactive). For the same compound, the GI50 (HT-29) was 42.7 µM (inactive), the GI50 (SK-MEL-28) was 37.8 µM (inactive) and the GI50 (OVCAR-8) was > 100 µM (inactive). For the same compound, the GI50 (SK-MEL-5) was 24 µM (inactive), the GI50 (NCI-H460) was 93.1 µM (inactive) and the GI50 (OVCAR-4) was > 100 µM (inactive). For the same compound, the GI50 (CAKI-1) was 40.8 µM (inactive), the GI50 (786-0) was > 100 µM (inactive) and the GI50 (SNB-19) was > 100 µM (inactive). For the same compound, the GI50 (RPMI-8226) was > 100 µM (inactive), the GI50 (M14) was 42.9 µM (inactive) and the GI50 (OVCAR-5) was > 100 µM (inactive). For the same compound, the GI50 (OVCAR-3) was > 100 µM (inactive), the GI50 (SK-OV-3) was > 100 µM (inactive) and the GI50 (TK-10) was > 100 µM (inactive). For the same compound, the GI50 (HCT-15) was > 100 µM, the GI50 (RXF 393) was 15.7 µM (inactive) and the GI50 (HCT-116) was 63.5 µM (inactive). The GI50 (A549) was > 100 µM (inactive), the GI50 (U-251) was 99.1 µM (inactive) and the GI50 (UACC-257) was 24.8 µM (inactive). The GI50 (MDA-MB-435) was > 100 µM (inactive), the GI50 (SF-268) was > 100 µM (inactive) and the GI50 (SF-295) was > 100 µM (inactive). For the same compound, the GI50 (MOLT-4) was 39.3 µM (inactive), the GI50 (Malme-3M) was 28.6 µM (inactive) and the GI50 (K562) was > 100 µM (inactive). The GI50 (BT-549) was > 100 µM (inactive), the GI50 (IGROV-1) was 39.3 µM (inactive) and the GI50 (NCI-H226) was 66.7 µM (inactive). The GI50 (HOP-62) was > 100 µM (inactive), the GI50 (EKVX) was > 100 µM (inactive) and the GI50 (NCI/ADR-RES) was 97.1 µM (inactive). For the same compound, the GI50 (NCI-H23) was > 100 µM (inactive), the GI50 (SNB-75) was 83.4 µM (inactive) and the GI50 (CCRF-CEM) was 32.4 µM (inactive). For the same compound, the GI50 (UO-31) was 24.3 µM (inactive), the GI50 (HCC 2998) was 62.7 µM (inactive) and the GI50 (COLO 205) was > 100 µM (inactive). For the same compound, the GI50 (PC-3) was 50.1 µM (inactive), the GI50 (DU-145) was > 100 µM (inactive) and the GI50 (KM12) was 69.5 µM (inactive). The GI50 (MCF7) was > 100 µM (inactive), the GI50 (UACC-62) was 32.7 µM (inactive) and the GI50 (Hs-578T) was 74 µM (inactive). For the same compound, the GI50 (SW-620) was > 100 µM (inactive).
